Positions of bridges follow the written chain, without caps; N, C: chain ends. Residues, ends and D or L forms follow the SMILES beside them.
How the values were obtained:
[1] = system: hCT(a), hAMY1(a), hAMY2(a), hAMY3(a) receptors; assay: cAMP production, overall statement for the four amylin-responsive receptors; format: cell-based, human; conditions: stimulation of cAMP production at hCT(a)
[2] = Thioflavin-T fluorescence amyloid formation kinetics and TEM in PBS; format: physicochemical; conditions: PBS (10 mM phosphate 140 mM KCl) pH 7.4
hAMY3(a) receptor = target: T1, hAMY3(a) receptor (Homo sapiens, UniProt O60896+P30988); assay: cAMP production; format: cell-based
T1 sequence (P30988 25-474): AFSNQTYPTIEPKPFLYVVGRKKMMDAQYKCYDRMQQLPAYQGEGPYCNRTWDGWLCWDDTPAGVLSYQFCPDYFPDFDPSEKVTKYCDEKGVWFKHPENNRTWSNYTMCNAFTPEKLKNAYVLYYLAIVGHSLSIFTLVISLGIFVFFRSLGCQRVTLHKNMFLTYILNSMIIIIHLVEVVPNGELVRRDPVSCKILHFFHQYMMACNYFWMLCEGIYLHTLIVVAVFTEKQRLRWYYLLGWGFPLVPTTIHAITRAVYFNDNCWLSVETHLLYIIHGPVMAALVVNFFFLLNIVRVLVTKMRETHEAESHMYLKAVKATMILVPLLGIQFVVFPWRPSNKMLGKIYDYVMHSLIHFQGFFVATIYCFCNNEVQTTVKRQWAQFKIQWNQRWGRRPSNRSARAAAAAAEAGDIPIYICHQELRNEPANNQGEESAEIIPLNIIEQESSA
T1 sequence (O60896 24-148 partner): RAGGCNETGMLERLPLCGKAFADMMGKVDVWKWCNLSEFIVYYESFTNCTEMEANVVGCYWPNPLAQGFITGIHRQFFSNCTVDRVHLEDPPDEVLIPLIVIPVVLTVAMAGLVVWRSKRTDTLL

rat INS-1/832-13 β-cells = assay: Alamar Blue β-cell viability; conditions: 30 μM peptide
hAMY1(a) receptor = hAMY1(a) receptor (Homo sapiens, UniProt O60894+P30988); assay: cAMP production; format: cell-based
Sequence of hAMY1(a) receptor (O60894 27-148 partner, one chain of several): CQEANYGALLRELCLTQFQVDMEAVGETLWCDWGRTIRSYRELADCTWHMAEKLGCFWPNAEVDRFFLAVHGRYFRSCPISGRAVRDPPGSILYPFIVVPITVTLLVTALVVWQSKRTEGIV

hAMY2(a) receptor = hAMY2(a) receptor (Homo sapiens, UniProt O60895+P30988); assay: cAMP production; format: cell-based
Sequence of hAMY2(a) receptor (O60895 43-175 partner, one chain of several): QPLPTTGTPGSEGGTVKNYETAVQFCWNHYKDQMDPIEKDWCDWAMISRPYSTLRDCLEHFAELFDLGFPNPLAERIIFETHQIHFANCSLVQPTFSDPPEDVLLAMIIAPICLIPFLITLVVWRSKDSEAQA

[3] = Amyloid formation in presence of anionic large unilamellar vesicles; format: physicochemical; conditions: LUV's 25% POPS / 75% POPC, final concentration 400 μM
[4] = Thioflavin-T fluorescence amyloid formation kinetics and TEM in Tris buffer
hCT(a) receptor = target: T2, hCT(a) receptor (Homo sapiens, UniProt P30988); assay: cAMP production; format: cell-based
T2 sequence (P30988 25-474): T1 sequence (P30988 25-474)

With `CC[C@H](C)[C@H](NC(=O)[C@H](C)NC(=O)CNC(=O)[C@H](CC(C)C)NC(=O)[C@H](CCCCN)NC(=O)[C@H](CC(N)=O)NC(=O)[C@H](CO)NC(=O)[C@H](CO)NC(=O)[C@@H]1CCCN1C(=O)[C@H](C)NC(=O)[C@H](CC(C)C)NC(=O)[C@H](Cc1ccccc1)NC(=O)[C@H](CC(N)=O)NC(=O)[C@H](C)NC(=O)[C@H](CC(C)C)NC(=O)[C@H](CCCNC(=N)N)NC(=O)[C@H](CCC(N)=O)NC(=O)[C@@H](NC(=O)[C@H](CCC(=O)O)NC(=O)[C@@H]1CSSC[C@H](NC(=O)[C@@H](N)CCCCN)C(=O)NCC(=O)N[C@@H]([C@@H](C)O)C(=O)N[C@@H](C)C(=O)N[C@@H]([C@@H](C)O)C(=O)N1)[C@@H](C)O)C(=O)N[C@@H](Cc1ccccc1)C(=O)N[C@@H](CO)C(=O)N1CCC[C@H]1C(=O)N[C@H](C(=O)N[C@@H](CCCCN)C(=O)N[C@@H](CCSC)C(=O)NCC(=O)N[C@@H](CO)C(=O)N[C@@H](CC(N)=O)C(=O)N[C@H](C(=O)N[C@@H](Cc1ccc(O)cc1)C(N)=O)[C@@H](C)O)[C@@H](C)O` [b-amylin] (H-KCGTATCETQRLANFLAPSSNKLGAIFSPTKMGSNTY-NH2; disulfide 2-7; N-terminus assumed) the “fold less potent than h-amylin” value [1] was “at least 300 fold”, the “amyloid fibrils by TEM” value [2] was “no amyloid fibrils were detected” and the “increase in thioflavin-T fluorescence signal” value ([2]; 7 days of incubation) was “no significant increase in thioflavin-T fluorescence signal was observed”. The Emax (hAMY3(a) receptor; COS-7) was 62.4 ± 9.31%, the EC50 (hAMY3(a) receptor; SEM) was 1350 nM and the Fold-change (hAMY3(a) receptor; potency of b-amylin relative to h-amylin at hAMY3(a)) was > −2000. For the same molecule, the “toxicity (in words)” value (rat INS-1/832-13 β-cells; 24 h incubation) was “did not exhibit any toxicity”, the “toxicity (in words)” value (rat INS-1/832-13 β-cells; 84 h incubation) was “not toxic” and the Emax (hAMY1(a) receptor; COS-7) was 83.1 ± 10.6%. For the same molecule, the EC50 (hAMY1(a) receptor; SEM) was 912 nM, the agonist character (hAMY1(a) receptor; hAMY1(a), cAMP production) was “full agonist” and the Fold-change (hAMY1(a) receptor; potency of b-amylin relative to h-amylin at hAMY1(a)) was > −5000. For the same molecule, the Emax (hAMY2(a) receptor; COS-7) was 73.9 ± 4.27%, the EC50 (hAMY2(a) receptor; SEM) was 1170 nM and the Fold-change (hAMY2(a) receptor; potency of b-amylin relative to h-amylin at hAMY2(a)) was > −600. The “amyloid formation in presence of LUV's” value [3] was “no amyloid formation was detected”, the “increase in thioflavin-T fluorescence signal” value ([4]; 16 μM peptide, 32 μM thioflavin-T, pH 7.4, 25°C, 20 mM Tris, 6 days of incubation) was “no increase in thioflavin-T fluorescence signal was observed” and the “amyloid formation at a range of peptide concentrations” value ([4]; 20 mM Tris pH 7.4, highest concentration examined 64 μM) was “no amyloid was detected”. The Emax (hCT(a) receptor; COS-7) was 62.9 ± 8.25%, the EC50 (hCT(a) receptor; SEM) was 1550 nM and the agonist character (hCT(a) receptor; hCT(a), cAMP production) was “partial agonist”. The Fold-change (hCT(a) receptor; potency of b-amylin relative to h-amylin at hCT(a)) was > −400.

Source: publication PMC7656518 (ACS chemical biology, 2018)
